Measurements reported in US20260308186A1, “STAT DEGRADERS AND USES THEREOF” (Recludix Pharma, Inc., priority 2023, published 2026).
Where two headings read alike, the source gives them in different places.

Assays:
STAT3 = molecular target: T1, STAT3 (Homo sapiens, UniProt P40763); assay: STAT3 Fluorescence Polarization (FP) Assay; type: binding
T1 construct: Recombinant STAT3 protein (STAT3(G127-1722))
Experimental: STAT3 Fluorescence Polarization (FP) Assay
An FP assay was developed to determine IC50 values for test substances. Recombinant STAT3 protein (STAT3(G127-1722)) at 25 nM was combined with a fluorescently labeled, phosphotyrosine peptide probe (5-FAM-GpYLPQTV-NH2) at 2 nM in FP buffer (10 mM HEPES pH 7.4, 50 mM NaCl, 1 mM EDTA, 0.05% Tween 20.2 mM DTT). 50 μL of STAT3-probe mixture was added to serial diluted compounds in black, 96-well plates (Greiner BioOne 655076) to a final concentration of 1% DMSO. Reaction components were mixed, and FP was measured after 45-minute incubation at room temperature using a Tecan Spark multimode plate reader. FP signal (mP) was plotted against the log concentration of the test substances and IC50 values were calculated by nonlinear regression analysis using GraphPad Prism software. For STAT3 FP assay. A=≤100 nM; B=>100-1000 nM; C=>1-10 μM; and D=>10 μM.

STAT6 = molecular target: T2, STAT6 (Homo sapiens, UniProt P42226); assay: STAT6 Fluorescence Polarization (FP) Assay; type: binding
T2 construct: Recombinant STAT6 protein (STAT6(W123-T658))
T2 sequence (P42226 123-658): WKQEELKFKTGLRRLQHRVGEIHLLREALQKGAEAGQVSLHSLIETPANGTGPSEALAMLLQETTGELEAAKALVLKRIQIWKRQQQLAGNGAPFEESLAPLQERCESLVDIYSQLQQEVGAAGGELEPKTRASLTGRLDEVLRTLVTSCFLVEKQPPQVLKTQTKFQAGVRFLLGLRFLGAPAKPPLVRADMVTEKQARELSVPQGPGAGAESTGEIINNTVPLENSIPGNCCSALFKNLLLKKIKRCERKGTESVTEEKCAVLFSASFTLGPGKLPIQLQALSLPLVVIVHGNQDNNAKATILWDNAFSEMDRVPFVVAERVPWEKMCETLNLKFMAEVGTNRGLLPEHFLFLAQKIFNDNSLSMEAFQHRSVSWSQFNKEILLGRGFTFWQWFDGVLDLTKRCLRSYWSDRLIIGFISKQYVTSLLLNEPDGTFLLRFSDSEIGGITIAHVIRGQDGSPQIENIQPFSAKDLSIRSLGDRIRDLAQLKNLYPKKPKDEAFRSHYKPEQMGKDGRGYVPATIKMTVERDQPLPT
Experimental: STAT6 Fluorescence Polarization (FP) Assay
An FP assay was developed to determine IC50 values for test substances. Recombinant STAT6 protein (STAT6(W123-T658)) at 250 nM was combined with a fluorescently labeled, phosphotyrosine peptide probe (5-FAM-Ap[…]-NH2) at 2 nM in FP buffer (10 mM HEPES pH 7.4, 50 mM NaCl, 1 mM EDTA, 0.05% Tween 20, 2 mM DTT), 50 μL of STAT6-probe mixture was added to serial diluted compounds in black, 96-well plates (Greiner BioOne 655076) to a final concentration of 1% DMSO. Reaction components were mixed, and FP was measured after 45-minute incubation at room temperature using a Tecan Spark multimode plate reader. FP signal (mP) was plotted against the log concentration of the test substances and IC50 values were calculated by nonlinear regression analysis using GraphPad Prism software. For STAT6 FP assay. A=≤300 nM; B=>300-3000 nM; C=>3-30 μM; and D=>30 μM.

pSTAT6 = molecular target: T3, pSTAT6 (Homo sapiens, UniProt P42226); assay: MSD-pSTAT-PBMC Assay, pSTAT6 (IL-4 stimulated PBMC); type: cell-based
T3 construct: pY641-STAT6 MSD read-out
T3 sequence (P42226 1-847): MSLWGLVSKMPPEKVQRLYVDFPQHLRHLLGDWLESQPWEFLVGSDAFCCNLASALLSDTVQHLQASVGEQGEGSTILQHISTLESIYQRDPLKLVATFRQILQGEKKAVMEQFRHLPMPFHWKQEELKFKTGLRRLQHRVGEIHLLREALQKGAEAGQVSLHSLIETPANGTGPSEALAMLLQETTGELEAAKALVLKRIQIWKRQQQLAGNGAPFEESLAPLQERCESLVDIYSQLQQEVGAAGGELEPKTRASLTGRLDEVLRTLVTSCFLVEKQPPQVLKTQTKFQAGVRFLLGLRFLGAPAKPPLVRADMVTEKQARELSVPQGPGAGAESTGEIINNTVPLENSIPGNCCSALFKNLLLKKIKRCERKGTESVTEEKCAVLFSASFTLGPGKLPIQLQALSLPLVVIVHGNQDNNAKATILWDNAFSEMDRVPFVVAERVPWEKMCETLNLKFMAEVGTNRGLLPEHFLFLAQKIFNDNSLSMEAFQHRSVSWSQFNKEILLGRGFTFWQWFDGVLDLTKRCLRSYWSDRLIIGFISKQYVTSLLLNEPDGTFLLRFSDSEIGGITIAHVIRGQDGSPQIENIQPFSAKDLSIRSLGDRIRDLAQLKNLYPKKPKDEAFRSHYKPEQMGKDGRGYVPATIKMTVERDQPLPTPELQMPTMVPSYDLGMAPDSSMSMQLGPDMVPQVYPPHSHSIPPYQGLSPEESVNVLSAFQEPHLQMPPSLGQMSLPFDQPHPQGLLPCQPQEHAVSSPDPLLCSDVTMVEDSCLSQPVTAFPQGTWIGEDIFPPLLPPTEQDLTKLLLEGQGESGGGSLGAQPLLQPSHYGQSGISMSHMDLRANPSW
From the text: Cryopreserved Peripheral Blood Mononuclear Cells (PBMC) are from AllCells. Recombinant Human IL-4 and IL-6 are from Peprotech. Mouse monoclonal anti-STAT3 antibody, rabbit monoclonal anti-pY705-STAT3 antibody, rabbit monoclonal Anti-pY641-STAT6 antibody, and lysis buffer are from Cell Signaling Technology (CST). Mouse monoclonal anti-STAT6 antibody is from BioLegend. Assay plates, blocker, and anti-rabbit secondary antibody are from Meso Scale Discovery (MSD).
Cryopreserved PBMCs were thawed out and allowed to recover overnight in IMDM+10% heat-inactivated FBS prior to plating 50,000 (STAT3) or 25,000 (STAT6) cells per well in 96-well U-bottom tissue culture plates. Cells were treated with compound for 3 hrs. then stimulated with 10 ng/mL IL-6 (STAT3) or 1 ng/mL IL-4 (STAT6) for 10 min. Cells were then spun down and washed with ice-cold PBS prior to lysing the cell pellet with 1× lysis buffer (CST) with 1×HALT protease and phosphatase inhibitor cocktail (Thermo). Lysates were transferred to and incubated overnight at 4° C. with shaking in QuickPlex 96-well high bind assay plates (MSD) pre-coated overnight with 30 μL per well of 0.6 μg/mL mouse monoclonal anti-STAT3 antibody (STAT3) or 2 μg/mL mouse monoclonal anti-STAT6 antibody (STAT6) in 1×PBS, and pre-blocked for 1 hour with 3% Blocker-A (MSD). Captured protein in the assay plates were then washed and probed with 25 μL per well of 0.25 μg/ml rabbit monoclonal anti-pY705-STAT3 antibody (STAT3) or 0.18 μg/ml rabbit monoclonal Anti-pY641-STAT6 antibody (STAT6) in 1% Blocker-A for 1 hour at room temperature with shaking, then washed and probed with 25 ul per well of 1 ug/ml Sulfo-TAG Labeled Goat Anti-Rabbit Antibody (MSD) in 1% Blocker-A for 1 hour at room temperature with shaking. Assay plates were then washed and 150 μL of 1× Read Buffer-T (MSD) was added to each well prior to reading on an SQ120 MSD Plate Reader. Assay signal from each sample was subtracted by the signal from unstimulated control wells and normalized to DMSO control wells. IC50 values were calculated using Graph Pad Prism Dose-Response Nonlinear Regression with variable slope. For both pSTAT3 and pSTAT6 A=≤100 nM; B=>100-1000 nM; C=>1000-3000 nM; and D=>3 μM.

[1] = read-out: pSTAT6 IC50, compound 3 hrs, then 1 ng/mL IL-4 for 10 min, pY641-STAT6
[2] = recombinant STAT3 25 nM, probe 5-FAM-GpYLPQTV-NH2 2 nM, 45 min, room temperature, read-out: STAT3 FP IC50
[3] = recombinant STAT6(W123-T658) 250 nM, probe 5-FAM-Ap[…]-NH2 2 nM, 45 min, room temperature, read-out: STAT6 FP IC50
[4] = compound 3 hrs, then 1 ng/mL IL-4 for 10 min, pY641-STAT6, read-out: pSTAT6 IC50

T1 sequence (P40763 127-722 limits assumed): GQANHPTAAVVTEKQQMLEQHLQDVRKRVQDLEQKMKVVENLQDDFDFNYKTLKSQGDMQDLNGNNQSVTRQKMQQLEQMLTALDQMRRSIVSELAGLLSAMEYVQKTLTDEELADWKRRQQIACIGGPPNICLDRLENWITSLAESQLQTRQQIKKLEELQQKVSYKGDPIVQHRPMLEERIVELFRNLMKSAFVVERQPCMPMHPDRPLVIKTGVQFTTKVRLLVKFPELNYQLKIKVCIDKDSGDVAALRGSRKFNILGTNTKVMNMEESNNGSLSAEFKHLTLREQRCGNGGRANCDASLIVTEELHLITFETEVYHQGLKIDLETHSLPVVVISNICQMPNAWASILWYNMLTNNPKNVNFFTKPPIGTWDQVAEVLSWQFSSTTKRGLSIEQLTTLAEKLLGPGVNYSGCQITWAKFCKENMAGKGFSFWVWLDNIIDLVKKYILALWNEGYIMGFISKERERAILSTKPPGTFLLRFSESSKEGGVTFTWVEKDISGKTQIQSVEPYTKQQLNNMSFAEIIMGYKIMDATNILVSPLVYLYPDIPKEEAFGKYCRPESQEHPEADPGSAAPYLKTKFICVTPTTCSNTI

| SMILES | IC50 (STAT3) [nM] | IC50 (STAT6) [nM] | IC50 (pSTAT6; [1]) [nM] | IC50 (STAT3; [2]) [nM] | IC50 (STAT6; [3]) [nM] | IC50 (pSTAT6; [4]) [nM] |
| --- | --- | --- | --- | --- | --- | --- |
| Cc1ccc2[nH]nc(C(=O)N3CC[C@H]4CC[C@@H](C(=O)N(C)CCCCCCC#Cc5cccc6c5CN(C5CCC(=O)NC5=O)C6=O)N4C(=O)[C@@H](NC(=O)c4ccc5ccc(C(F)(F)P(=O)(O)O)cc5c4)C3)c2c1 (stereo partly drawn) [Compound 11, ((7-(((5S,8S,10aR)-8-((8-(2-(2,6-dioxopiperidin-3-yl)-1-oxoisoindolin-4-yl)oct-7-yn-1-yl)(methyl)carbamoyl)-3-(5-methyl-1H-indazole-3-carbonyl)-6-oxodecahydropyrrolo[1,2-a][1,5]diazocin-5-yl)carbamoyl)naphthalen-2-yl)difluoromethyl)phosphonic acid] | 1000 to 10000 | < 300 | 100 to 1000 |  |  |  |
| Cc1ccc2[nH]nc(C(=O)N3CC[C@H]4CC[C@@H](C(=O)N(C)CCCCCCC#Cc5cccc6c5CN(C5CCC(=O)NC5=O)C6=O)N4C(=O)[C@@H](NC(=O)c4ccc5ccc(C(F)P(=O)(O)O)cc5c4)C3)c2c1 (stereo partly drawn) [Compound 14, ((7-(((5S,8S,10aR)-8-((8-(2-(2,6-dioxopiperidin-3-yl)-1-oxoisoindolin-4-yl)oct-7-yn-1-yl)(methyl)carbamoyl)-3-(5-methyl-1H-indazole-3-carbonyl)-6-oxodecahydropyrrolo[1,2-a][1,5]diazocin-5-yl)carbamoyl)naphthalen-2-yl)fluoromethyl)phosphonic acid] | > 10000 | 300 to 3000 | > 3000 |  |  |  |
| Cc1ccc2[nH]nc(C(=O)N3CC[C@H]4CC[C@@H](C(=O)N(C)CCCCCCC#Cc5cccc6c5CN(C5CCC(=O)NC5=O)C6=O)N4C(=O)[C@@H](NC(=O)c4ccc5ccc(CP(=O)(O)O)cc5c4)C3)c2c1 (stereo partly drawn) [Compound 15, ((7-(((5S,8S,10aR)-8-((8-(2-(2,6-dioxopiperidin-3-yl)-1-oxoisoindolin-4-yl)oct-7-yn-1-yl)(methyl)carbamoyl)-3-(5-methyl-1H-indazole-3-carbonyl)-6-oxodecahydropyrrolo[1,2-a][1,5]diazocin-5-yl)carbamoyl)naphthalen-2-yl)methyl)phosphonic acid] | > 10000 | 300 to 3000 | > 3000 |  |  |  |
| Cc1ccc2onc(C(=O)N3CC[C@H]4CC[C@@H](C(=O)N(C)CCCCCCC#Cc5cccc6c5CN(C5CCC(=O)NC5=O)C6=O)N4C(=O)[C@@H](NC(=O)c4ccc5ccc(C(F)(F)P(=O)(O)O)cc5c4)C3)c2c1 (stereo partly drawn) [Compound 22, ((7-(((5S,8S,10aR)-8-((8-(2-(2,6-dioxopiperidin-3-yl)-1-oxoisoindolin-4-yl)oct-7-yn-1-yl)(methyl)carbamoyl)-3-(5-methylbenzo[d]isoxazole-3-carbonyl)-6-oxodecahydropyrrolo[1,2-a][1,5]diazocin-5-yl)carbamoyl)naphthalen-2-yl)difluoromethyl)phosphonic acid] |  |  |  | > 10000 | < 300 | 100 to 1000 |
| Cc1ccc2onc(C(=O)N3CC[C@H]4CC[C@@H](C(=O)N(C)CC(=O)N[C@H](C(=O)N5C[C@H](O)C[C@H]5C(=O)N[C@@H](C)c5ccc(-c6scnc6C)cc5)C(C)(C)C)N4C(=O)[C@@H](NC(=O)c4ccc5ccc(C(F)(F)P(=O)(O)O)cc5c4)C3)c2c1 [Compound 27, (difluoro(7-(((5S,8S,10aR)-8-((2-(((S)-1-((2S,4R)-4-hydroxy-2-(((S)-1-(4-(4-methylthiazol-5-yl)phenyl)ethyl)carbamoyl)pyrrolidin-1-yl)-3,3-dimethyl-1-oxobutan-2-yl)amino)-2-oxoethyl)(methyl)carbamoyl)-3-(5-methylbenzo[d]isoxazole-3-carbonyl)-6-oxodecahydropyrrolo[1,2-a][1,5]diazocin-5-yl)carbamoyl)naphthalen-2-yl)methyl)phosphonic acid] |  |  |  | 1000 to 10000 | < 300 | > 3000 |
| Cc1ccc2onc(C(=O)N3CC[C@H]4CC[C@@H](C(=O)N(C)CCC#Cc5cccc6c5CN(C5CCC(=O)NC5=O)C6=O)N4C(=O)[C@@H](NC(=O)c4ccc5ccc(C(F)(F)P(=O)(O)O)cc5c4)C3)c2c1 (stereo partly drawn) [Compound 28, ((7-(((5S,8S,10aR)-8-((4-(2-(2,6-dioxopiperidin-3-yl)-1-oxoisoindolin-4-yl)but-3-yn-1-yl)(methyl)carbamoyl)-3-(5-methylbenzo[d]isoxazole-3-carbonyl)-6-oxodecahydropyrrolo[1,2-a][1,5]diazocin-5-yl)carbamoyl)naphthalen-2-yl)difluoromethyl)phosphonic acid] |  |  |  | 1000 to 10000 | < 300 | > 3000 |
